Structures can show the parent of a compound that is named as a salt.
Assays:
LOVO cells = assay: Cell proliferation assay (CellTiter-Glo); assay type: cell-based; settings: Homo sapiens, 96 hours
Experimental: The cell proliferation inhibition effect of the compound of the invention was tested using CellTiter-Glo™ cell viability assay kit. This kit uses luciferase as the detector. During the luminescence process, the luciferase requires the participation of ATP. CellTiter-Glo™ reagent was added to the cell culture medium, and the luminescence value was measured. The light signal is proportional to the amount of ATP present in the system, and ATP positively correlates with the number of viable cells present, thus the cell proliferation activity is measured.
Cell culture and seeding: LOVO cells in logarithmic growth phase (human colon carcinoma cells) (ATCC CCL-229) were harvested and counted using a platelet counter. Trypan blue exclusion method was used to detect the cell viability to ensure that the cell viability was above 90%. 90 μL of cell suspension (RPMI1640+10% fetal bovine serum) was added to a 96-well transparent flat-bottom black-wall plate (Thermo, 165305) respectively, and the cell concentration was adjusted to 3000/well/90 μl. Cells in the 96-well plate were incubated overnight at 37° C., 5% CO2 with 95% humidity (Thermo, Model 3100 Series).
Firstly, DMSO was used as the solvent to prepare 10 mM mother solution of the test compounds, and then PBS was used to dilute 100 times to prepare a solution of 10 times of final concentration, the highest concentration was 100 μM. 10 μL solution of the test compounds was added to each well of the 96 well plate inoculated with cells, namely the solution was further diluted 10 times to reach the final concentration of 10 μM. Starting from 10 μM, the final concentration of the test compound was 3-fold serially diluted, with 9 concentrations in total with 3 triplicates for each concentration. The 96 well plates with the test compounds and cells were incubated at 37° C., 5% CO2 and 95% humidity for 96 hours, and then CellTiter Glo analysis was performed.
CellTiter-Glo Reagents (CellTiter Glo R Luminescent Cell Viability Assay, Promega, G7572) were melted and the 96-well plates were equilibrated to room temperature for 30 minutes. An equal volume of CellTiter-Glo solution was added to each well, and the cells were lysed by shaking on the fixed orbit shaker for 5 minutes. The assay plates were left at room temperature for 20 minutes to stabilize the luminescence signal, and the luminescence signals were read using the SpectraMax multi-labeled microplate detector (MD, M3).
Data were analyzed using GraphPad Prism 7.0 software, fitted with non-linear S-curve regression to derive the dose-response curves, and IC50 values were calculated therefrom.
Cell survival rate (%)=(LumDrug to be tested−LumCulture medium control)/(LumCell control−LumCulture medium control)×100%

ATR = ATR (Homo sapiens (Human), UniProt Q13535); assay: ATR kinase inhibition assay (HTRF); assay type: biochemical; settings: p53 substrate, ATP 150 nM
Chain of ATR (Q13535 whole entry): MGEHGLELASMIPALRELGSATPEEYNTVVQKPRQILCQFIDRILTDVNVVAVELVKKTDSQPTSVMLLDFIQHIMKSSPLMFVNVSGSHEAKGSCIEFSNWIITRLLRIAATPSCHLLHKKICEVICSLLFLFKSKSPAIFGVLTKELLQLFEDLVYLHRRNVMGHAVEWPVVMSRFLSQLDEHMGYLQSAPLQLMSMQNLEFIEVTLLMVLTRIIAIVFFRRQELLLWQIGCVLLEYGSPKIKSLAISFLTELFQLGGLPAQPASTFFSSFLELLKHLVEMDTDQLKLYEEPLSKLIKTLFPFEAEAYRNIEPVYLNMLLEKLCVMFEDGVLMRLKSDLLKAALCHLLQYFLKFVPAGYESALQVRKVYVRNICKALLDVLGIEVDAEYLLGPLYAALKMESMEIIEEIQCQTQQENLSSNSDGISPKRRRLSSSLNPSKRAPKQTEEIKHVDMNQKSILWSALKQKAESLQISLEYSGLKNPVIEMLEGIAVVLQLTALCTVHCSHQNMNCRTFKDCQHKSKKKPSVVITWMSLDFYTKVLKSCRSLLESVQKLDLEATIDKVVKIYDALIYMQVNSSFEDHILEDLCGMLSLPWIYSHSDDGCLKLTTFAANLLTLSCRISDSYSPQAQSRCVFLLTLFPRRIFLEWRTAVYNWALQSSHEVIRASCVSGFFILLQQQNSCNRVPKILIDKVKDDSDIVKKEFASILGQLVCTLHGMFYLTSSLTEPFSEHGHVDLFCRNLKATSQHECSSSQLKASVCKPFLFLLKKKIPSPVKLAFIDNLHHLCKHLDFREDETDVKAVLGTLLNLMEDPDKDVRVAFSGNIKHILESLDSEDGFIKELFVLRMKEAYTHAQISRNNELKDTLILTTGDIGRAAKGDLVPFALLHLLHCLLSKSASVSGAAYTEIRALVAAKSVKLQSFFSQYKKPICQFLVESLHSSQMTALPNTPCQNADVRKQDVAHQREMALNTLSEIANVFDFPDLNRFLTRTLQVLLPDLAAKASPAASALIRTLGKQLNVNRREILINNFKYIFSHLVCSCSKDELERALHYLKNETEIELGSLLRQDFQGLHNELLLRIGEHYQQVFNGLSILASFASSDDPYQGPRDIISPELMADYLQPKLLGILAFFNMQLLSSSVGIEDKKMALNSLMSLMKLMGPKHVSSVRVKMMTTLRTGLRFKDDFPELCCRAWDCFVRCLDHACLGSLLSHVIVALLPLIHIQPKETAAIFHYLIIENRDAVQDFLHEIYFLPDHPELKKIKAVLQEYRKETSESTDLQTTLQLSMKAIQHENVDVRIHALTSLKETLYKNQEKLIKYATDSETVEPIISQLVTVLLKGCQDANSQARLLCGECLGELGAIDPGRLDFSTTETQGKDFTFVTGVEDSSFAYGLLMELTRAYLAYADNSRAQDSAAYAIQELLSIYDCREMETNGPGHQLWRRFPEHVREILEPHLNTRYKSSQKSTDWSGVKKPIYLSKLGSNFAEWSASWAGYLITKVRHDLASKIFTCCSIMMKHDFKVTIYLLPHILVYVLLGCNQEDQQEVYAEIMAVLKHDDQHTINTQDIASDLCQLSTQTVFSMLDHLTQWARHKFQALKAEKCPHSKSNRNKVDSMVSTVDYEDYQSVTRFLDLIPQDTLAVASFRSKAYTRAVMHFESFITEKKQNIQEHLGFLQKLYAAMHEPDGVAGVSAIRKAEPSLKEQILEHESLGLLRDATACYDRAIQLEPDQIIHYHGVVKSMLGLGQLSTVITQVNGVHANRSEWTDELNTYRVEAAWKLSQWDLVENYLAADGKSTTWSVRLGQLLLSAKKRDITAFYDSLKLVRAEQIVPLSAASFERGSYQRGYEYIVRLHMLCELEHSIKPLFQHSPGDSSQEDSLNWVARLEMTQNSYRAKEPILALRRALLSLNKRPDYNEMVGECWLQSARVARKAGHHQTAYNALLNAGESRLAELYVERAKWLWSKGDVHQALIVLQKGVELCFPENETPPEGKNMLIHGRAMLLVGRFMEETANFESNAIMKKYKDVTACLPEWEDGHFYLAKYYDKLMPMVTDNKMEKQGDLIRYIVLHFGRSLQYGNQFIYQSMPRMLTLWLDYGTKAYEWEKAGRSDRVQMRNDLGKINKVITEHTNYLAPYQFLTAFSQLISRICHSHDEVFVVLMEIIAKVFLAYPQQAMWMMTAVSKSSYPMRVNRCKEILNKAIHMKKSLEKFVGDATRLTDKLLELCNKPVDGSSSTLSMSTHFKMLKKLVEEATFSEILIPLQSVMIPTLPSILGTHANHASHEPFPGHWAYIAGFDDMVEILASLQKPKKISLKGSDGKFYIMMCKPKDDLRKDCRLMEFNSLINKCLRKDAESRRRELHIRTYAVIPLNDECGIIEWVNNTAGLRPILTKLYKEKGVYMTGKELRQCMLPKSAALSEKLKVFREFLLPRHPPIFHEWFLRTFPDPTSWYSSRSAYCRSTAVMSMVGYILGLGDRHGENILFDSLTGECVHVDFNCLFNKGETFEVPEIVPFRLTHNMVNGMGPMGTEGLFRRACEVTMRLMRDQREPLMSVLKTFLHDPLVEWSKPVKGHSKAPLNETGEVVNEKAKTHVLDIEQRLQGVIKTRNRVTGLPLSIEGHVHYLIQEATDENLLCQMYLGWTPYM
Chain of ATR (Q8WXE1 whole entry partner): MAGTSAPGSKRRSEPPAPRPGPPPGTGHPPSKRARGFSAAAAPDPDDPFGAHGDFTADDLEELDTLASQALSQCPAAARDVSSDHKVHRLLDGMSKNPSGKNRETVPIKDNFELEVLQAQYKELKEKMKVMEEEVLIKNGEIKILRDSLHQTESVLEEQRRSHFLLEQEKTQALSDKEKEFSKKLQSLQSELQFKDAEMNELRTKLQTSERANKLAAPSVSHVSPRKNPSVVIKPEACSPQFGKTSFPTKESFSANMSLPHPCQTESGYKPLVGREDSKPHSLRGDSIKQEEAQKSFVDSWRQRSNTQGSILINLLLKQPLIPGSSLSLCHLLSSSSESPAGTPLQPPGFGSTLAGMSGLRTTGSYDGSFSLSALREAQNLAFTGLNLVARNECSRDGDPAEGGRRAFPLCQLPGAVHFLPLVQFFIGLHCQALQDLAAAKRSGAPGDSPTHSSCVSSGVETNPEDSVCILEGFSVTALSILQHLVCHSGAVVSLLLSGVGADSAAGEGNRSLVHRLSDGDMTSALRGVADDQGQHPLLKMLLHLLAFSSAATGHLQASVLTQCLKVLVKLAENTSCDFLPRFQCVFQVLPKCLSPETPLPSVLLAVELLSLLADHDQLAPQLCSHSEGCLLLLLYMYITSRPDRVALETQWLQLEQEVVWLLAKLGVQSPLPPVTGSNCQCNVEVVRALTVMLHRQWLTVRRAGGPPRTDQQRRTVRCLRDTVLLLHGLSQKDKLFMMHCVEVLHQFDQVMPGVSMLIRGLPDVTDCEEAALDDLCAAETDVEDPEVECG
Experimental: This experiment adopted Homogeneous time-resolved fluorescence technology (HTRF®) of Cisbio Company for assay.
Experiment method: buffers were prepared as follows:
Preparation of solutions of the test compounds: The example compounds shown in the table below were prepared into solutions using DMSO as solvent, the stock solution typically being 10 mM. The maximum starting concentration in this experiment was 3 μM, DMSO 3-fold serial dilutions for concentrations, the serially diluted solution was added to each well of the corresponding 384-well plate (geriner bio-one, Cat #784075) to give final concentrations of 3000, 1000, 333, 111, 37, 12.3, 4.12, 1.37, 0.457, 0.152 nM, respectively, and the corresponding amount of DMSO was added to the additional wells to be used as negative or positive control wells, respectively.
The enzyme and substrate were separately dissolved and diluted in two tubes with the buffer prepared above at the following concentrations:
5 μL of the ATR protein solution from tube A was added to the compound-containing wells and the negative control wells in the assay plates using an electric multichannel pipettor, and the same volume of the prepared buffer (medium only, no enzyme) was added to the positive control wells. The plates were centrifuged for one minute at 1000 rpm, and then placed in an incubator at 25° C. for 15 minutes. 5 μL of the substrate mix solution from tube B was added to the positive control well, negative control well and the compound-containing well of the assay plates in the same manner, centrifuged and incubated at 25° C. for 90 minutes.
During the reaction, after ATR phosphorylated the substrate p53, two antibodies were added. Among them, anti-phospho-p53-Eu, as an energy donor, can specifically bind to the phosphorylation site of p53, while anti-GST-d2, as an energy receptor, can specifically bind to the GST-tagged p53. Upon excitation by a laser with certain wavelength (the excitation wavelength in this experiment is 340 nm), the energy donor can emit emission light of 615 nm, and when the energy donor and the energy receptor are close enough in space (that is, two antibodies are connected to p53 at the same time), energy transfer can occur between the energy donor and the energy receptor, so that the energy receptor can emit emission light of 665 nm. The two emission lights were detected by a plate reader, and the ratio of the signals at 665 nm and 615 nm was calculated. The IC50 of the samples tested can be obtained by plotting and calculation.
10 μL per well of the detection solution was added to the positive control, negative control and compound wells of the assay plate using an electric multichannel pipette, centrifuged and incubated overnight at 4° C., and read with the plate reader Envision 2104.
Compound inhibition rate was calculated using interpolation. The mean values of the positive and negative controls were calculated respectively, and the following formula was used to calculate the inhibition rates of the compounds:
Inhibition rate Minimum response+(Compound concentration ^Curve slope)*(Maximum response−Minimum response)/(Compound concentration^Curve slope+Half inhibition concentration ^Curve slope)
The IC50 value of each compound to enzyme activity was obtained.

Row | IC50 (LOVO cells) | IC50 (ATR) | Structure (SMILES)
1 | 620 nM | – | C[C@@H]1COCCN1c1cc(N2CC3CCC(C2)O3)nc2c(-c3cc[nH]n3)nn(C)c12 [Example 19, 3-(1-methyl-7-((R)-3-methylmorpholino)-3-(1H-pyrazol-3-yl)-1H-pyrazolo[4,3-b]pyridin-5-yl)-8-oxa-3-azabicyclo[3.2.1]octane]
2 | 310 nM | 21.9 nM | C[C@@H]1CN(c2cc(N3CC4CCC(C3)O4)nn3c(-c4cc[nH]n4)ncc23)C[C@H](C)O1 [Example 16, 3-(4-(cis-2,6-dimethylmorpholino)-7-(1H-pyrazol-3-yl)imidazo[1,5-b]pyridazin-2-yl)-8-oxa-3-azabicyclo[3.2.1]octane]
3 | 2640 nM | 22.4 nM | C[C@@H]1CN(C)CCN1c1cc(N2CC3CCC(C2)O3)nn2c(-c3cc[nH]n3)ncc12 [Example 11, 3-(4-((R)-2,4-dimethylpiperazin-1-yl)-7-(1H-pyrazol-3-yl)imidazo[1,5-b]pyridazin-2-yl)-8-oxa-3-azabicyclo[3.2.1]octane formate]
4 | 488 nM | 4.5 nM | CC(=O)N1CCN(c2cc(N3C[C@H]4CC[C@@H](C3)O4)nn3c(-c4cc[nH]n4)ncc23)[C@H](C)C1 [Example 29, 1-((R)-4-(2-((1R,5S)-8-oxa-3-azabicyclo[3.2.1]octan-3-yl)-7-(1H-pyrazol-3-yl)imidazo[1,5-b]pyridazin-4-yl)-3-methylpiperazin-1-yl)ethan-1-one]
5 | 592 nM | 79.2 nM | C[C@@H]1CNCCN1c1cc(N2CC3CCC(C2)O3)nn2c(-c3cc[nH]n3)ncc12 [Example 9, 3-(4-((R)-2-methylpiperazin-1-yl)-7-(1H-pyrazol-3-yl)imidazo[1,5-b]pyridazin-2-yl)-8-oxa-3-azabicyclo[3.2.1]octane formate]
6 | 424 nM | 7.6 nM | CC(=O)N1CCN(c2cc(N3C[C@H]4CC[C@@H](C3)O4)nc3c2cnn3-c2cc[nH]n2)[C@H](C)C1 [Example 34, 1-((R)-4-(6-((1R,5S)-8-oxa-3-azabicyclo[3.2.1]octan-3-yl)-1-(1H-pyrazol-3-yl)-1H-pyrazolo[3,4-b]pyridin-4-yl)-3-methylpiperazin-1-yl)ethan-1-one]
7 | 522 nM | 15.3 nM | OCC1COCCN1c1cc(N2C[C@H]3CC[C@@H](C2)O3)nc2c1cnn2-c1cc[nH]n1 (stereo partly drawn) [Example 35, (4-(6-((1R,5S)-8-oxa-3-azabicyclo[3.2.1]octan-3-yl)-1-(1H-pyrazol-3-yl)-1H-pyrazolo[3,4-b]pyridin-4-yl)morpholin-3-yl)methanol]
8 | 148 nM | 6.2 nM | CC1(C)COCCN1c1cc(N2CC3CCC(C2)O3)nc2c(-c3ccn[nH]3)cnn12 [Example 36, 3-(7-(3,3-dimethylmorpholino)-3-(1H-pyrazol-5-yl)pyrazolo[1,5-a]pyrimidin-5-yl)-8-oxa-3-azabicyclo[3.2.1]octane]
9 | 479 nM | 40.3 nM | C[C@@H]1COCCN1c1cc(N2CC3CCC(C2)O3)nn2c(-c3cc[nH]n3)cnc12 [Example 2, 3-(8-((R)-3-methylmorpholino)-3-(1H-pyrazol-3-yl)imidazo[1,2-b]pyridazin-6-yl)-8-oxa-3-azabicyclo[3.2.1]octane]
10 | 158 nM | 3.9 nM | C[C@@H]1CC(F)(F)CCN1c1cc(N2CC3CCC(C2)O3)nn2c(-c3cc[nH]n3)ncc12 [Example 31, 3-(4-((R)-4,4-difluoro-2-methylpiperidin-1-yl)-7-(1H-pyrazol-3-yl)imidazo[1,5-b]pyridazin-2-yl)-8-oxa-3-azabicyclo[3.2.1]octane]
11 | 140 nM | 20.3 nM | C[C@@H]1COCCN1c1c(Cl)c(N2CC3CCC(C2)O3)nn2c(-c3cc[nH]n3)ncc12 [Example 4, 3-(3-chloro-4-((R)-3-methylmorpholino)-7-(1H-pyrazol-3-yl)imidazo[1,5-b]pyridazin-2-yl)-8-oxa-3-azabicyclo[3.2.1]octane]
12 | 156 nM | 5.6 nM | C[C@H]1CC(F)(F)CCN1c1cc(N2CC3CCC(C2)O3)nn2c(-c3cc[nH]n3)ncc12 [Example 32, 3-(4-((S)-4,4-difluoro-2-methylpiperidin-1-yl)-7-(1H-pyrazol-3-yl)imidazo[1,5-b]pyridazin-2-yl)-8-oxa-3-azabicyclo[3.2.1]octane]
13 | 186 nM | 22 nM | C[C@H]1COCCN1c1cc(N2CC3CCC(C2)O3)nn2c(-c3cc[nH]n3)ncc12 [Example 15, 3-(4-((S)-3-methylmorpholino)-7-(1H-pyrazol-3-yl)imidazo[1,5-b]pyridazin-2-yl)-8-oxa-3-azabicyclo[3.2.1]octane]
14 | 1270 nM | 57.7 nM | Cn1nccc1-c1cc(N2CC3CCC(C2)O3)nc2c(-c3cc[nH]n3)cnn12 [Example 26, 3-(7-(1-methyl-1H-pyrazol-5-yl)-3-(1H-pyrazol-3-yl)pyrazolo[1,5-a]pyrimidin-5-yl)-8-oxa-3-azabicyclo[3.2.1]octane]
15 | 419 nM | 8 nM | FC1(F)CCN(c2cc(N3CC4CCC(C3)O4)nn3c(-c4cc[nH]n4)ncc23)CC1 [Example 14, 3-(4-(4,4-difluoropiperidin-1-yl)-7-(1H-pyrazol-3-yl)imidazo[1,5-b]pyridazin-2-yl)-8-oxa-3-azabicyclo[3.2.1]octane]
16 | 39 nM | 1.4 nM | CC1(C)COCCN1c1cc(N2CC3CCC(C2)O3)nn2c(-c3cc[nH]n3)ncc12 [Example 20, 3-(4-(3,3-dimethylmorpholino)-7-(1H-pyrazol-3-yl)imidazo[1,5-b]pyridazin-2-yl)-8-oxa-3-azabicyclo[3.2.1]octane]

Row | Structure (SMILES) | IC50 (LOVO cells) | IC50 (ATR)
17 | c1cc(-c2ncc3c(N4C5CCC4COC5)cc(N4CC5CCC(C4)O5)nn23)n[nH]1 [Example 8, 8-(2-(8-oxa-3-azabicyclo[3.2.1]octan-3-yl)-7-(1H-pyrazol-3-yl)imidazo[1,5-b]pyridazin-4-yl)-3-oxa-8-azabicyclo[3.2.1]octane] | 243 nM | 18.4 nM

Source: patent US20240294550A1, “8-OXA-3-AZABICYCLO[3.2.1]OCTANE COMPOUNDS OR SALT THEREOF, AND PREPARATION METHOD AND USE THEREOF” (LITTDD MEDICINES LTD, priority 2021, published 2024)
